For one experiment, the target named is T1, S1P1 (Homo sapiens, UniProt P21453).
T1 construct: expressed in transfected cells; host or cells: CHO cell membranes
In words: [35S]-GTPγS binding assay, CHO-S1P receptor membranes, S1P1. It is filed as biochemical. The conditions noted are these: CHO-S1P receptor membrane; for Emax: control S1P, read-out: S1P1 % Efficacy. The method, then: (§1) Binding assays for [^35S]-GTPγS were performed in 96-well non-binding surface plates with a final volume of 200 μL. The test compounds were serial diluted in DMSO and added to assay plates using a Tecan D300E digital printer with a total volume of 0.4 μL. The control sphingosine-1-phosphate (S1P) was prepared separately by preparing a 400 μM stock solution from a 100 nmol pellet of S1P in 10 mM Na2CO3 with 2% β-cyclodextrin. The serial dilution of S1P was done using complete assay buffer (20 mM HEPES, 10 mM MgCl2, 100 mM NaCl, 1 mM EDTA, 0.1% fatty acid free bovine serum albumin [BSA], and 30 μg/mL saponin, pH7.4) and transferred to wells already containing 0.4 μL DMSO. All the wells were then loaded to a total volume of 40 μL of complete assay buffer, except the non-specific binding (NSB) wells. For NSB wells, 40 μL/well of 50 μM GTPγS (Sigma Aldrich, cat# G8634, St. Louis, MO) was added to wells containing 0.4 μL of DMSO. The assay was started by the addition of 120 μL/well of CHO-S1P receptor membrane solution containing 40 μg/mL of membrane protein, 16.67 μM guanosine diphosphate (GDP; Sigma Aldrich, cat# G7127, St. Louis, MO), and 2.5 mg/mL of WGA PVT SPA beads in complete buffer. Assay plates were then sealed and incubated at room temperature with gentle agitation for 30 minutes. Next, 40 μL/well of 1 nM of [^35S]-GTPγS (PerkinElmer, cat# NEG030×250UC, Waltham, MA) in basic assay buffer (20 mM HEPES, 10 mM MgCl2, 100 mM NaCl, and 1 mM EDTA, pH7.4) was added to the assay plates to yield a final concentration of 200 pM and the plates were further incubated for 40 minutes at room temperature with gentle agitation. The assay was terminated by centrifugation of the plates at 1000 rpm for 3 minutes using an Eppendorf 5810R centrifuge (Eppendorf, Hamburg, Germany) and G protein bound radioactivity was quantitated using a MicroBeta2 microplate scintillation counter (PerkinElmer, Waltham, MA).
For orientation: GTPγS is a poorly hydrolysed GTP analogue; its binding reports G protein activation.

The target in a further experiment is T2, S1P5 (Homo sapiens, UniProt Q9H228).
T2 construct: expressed in transfected cells; host or cells: CHO cell membranes
In words: [35S]-GTPγS binding assay, CHO-S1P receptor membranes, S1P5. The experiment is classed as biochemical. Conditions: CHO-S1P receptor membrane; for Emax: control S1P, read-out: S1P5 % Efficacy. The method, then:
as §1

T1 sequence (P21453 whole entry, species assumed): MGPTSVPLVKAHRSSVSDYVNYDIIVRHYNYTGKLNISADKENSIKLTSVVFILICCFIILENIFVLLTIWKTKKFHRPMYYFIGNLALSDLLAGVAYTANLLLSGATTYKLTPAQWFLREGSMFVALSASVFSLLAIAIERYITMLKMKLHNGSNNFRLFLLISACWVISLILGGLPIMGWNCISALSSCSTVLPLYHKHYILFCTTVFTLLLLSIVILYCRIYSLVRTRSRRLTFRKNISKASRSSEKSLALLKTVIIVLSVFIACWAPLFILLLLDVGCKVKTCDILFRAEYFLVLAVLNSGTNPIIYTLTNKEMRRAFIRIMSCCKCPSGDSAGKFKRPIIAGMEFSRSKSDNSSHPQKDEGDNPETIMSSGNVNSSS
T2 sequence (Q9H228 whole entry, species assumed): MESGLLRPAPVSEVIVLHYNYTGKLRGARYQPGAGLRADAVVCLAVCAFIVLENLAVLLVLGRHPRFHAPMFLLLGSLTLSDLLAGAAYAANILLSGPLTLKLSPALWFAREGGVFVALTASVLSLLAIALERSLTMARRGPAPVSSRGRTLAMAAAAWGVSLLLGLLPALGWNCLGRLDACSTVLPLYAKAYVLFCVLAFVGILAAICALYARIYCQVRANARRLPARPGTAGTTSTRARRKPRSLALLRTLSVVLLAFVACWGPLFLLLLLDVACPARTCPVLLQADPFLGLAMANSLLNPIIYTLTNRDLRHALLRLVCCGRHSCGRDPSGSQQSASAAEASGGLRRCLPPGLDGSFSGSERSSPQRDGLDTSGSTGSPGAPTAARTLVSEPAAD

For the compound `CCOC1=CCc2c1cccc2-c1noc(-c2ccc(OC(C)C)c(C#N)c2)n1` [compound 3, 5-(3-(3-ethoxy-1H-inden-7-yl)-1,2,4-oxadiazol-5-yl)-2-isopropoxy-benzonitrile], at S1P1, the midpoint of the response, the EC50, lay at 0.032 µM and the Emax worked out at 92%. Moreover, at S1P5, a half-maximal response (EC50) required 0.27 µM and the Emax was determined as 68%.
For `COC1=CCc2c1cccc2-c1noc(-c2ccc(OC(C)C)c(C#N)c2)n1` [compound 2, 2-isopropoxy-5-(3-(3-methoxy-1H-inden-7-yl)-1,2,4-oxadiazolyl)benzonitrile] the same measures were 0.018 µM, 87%, 0.148 µM and 33%.
For `CC(C)OC1=CCc2c1cccc2-c1noc(-c2ccc(OC(C)C)c(C#N)c2)n1` [compound 4, 2-isopropoxy-5-(3-(3-isopropoxy-1H-inden-7-yl)-1,2,4-oxadiazol-5-yl)-benzonitrile], in that order: 0.007 µM, 86%, 0.151 µM and 79%.

Values taken from patent publication US12428386B2, “Sphingosine 1 phosphate receptor modulators” (RECEPTOS LLC, priority 2020, dated 2025).
